Some results are limits rather than exact numbers.

This test deals with LPS-induced TNF-α release in peripheral blood mononuclear cells (PBMCs). As to the kind of experiment: In vitro determination of PDE4 inhibitory activity in the PBMCs assay (LPS-induced TNF-α release). Type of test: cell-based, human. As to conditions: PBMC; human PBMCs, LPS 3 ng/ml, 18 hours, TNF-α by ELISA; read-out: PDE4 inhibition (IC50, 50% inhibition of LPS-induced TNF-α release). Put shortly:
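Cryopreserved human PBMCs (10^5 cells/well) pre-incubated 30 min with compound (10^−12 to 10^−6 M or 10^−3 to 10^−7 M), then stimulated with LPS 3 ng/ml for 18 h at 37 °C. TNF-α in medium by ELISA; IC50 as mean ± 95% confidence limits.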
(In general: ELISA stands for enzyme-linked immunosorbent assay.)
As for `O=C(O[C@@H](Cc1c(Cl)c[n+]([O-])cc1Cl)c1ccc(OC(F)F)c(OCC2CC2)c1)C1SCCN1S(=O)(=O)c1cccnc1` (stereo partly drawn) [Compound 66, 3,5-dichloro-4-((2S)-2-(3-(cyclopropylmethoxy)-4-(difluoromethoxy)phenyl)-2-(3-(pyridin-3-ylsulfonyl)thiazolidine-2-carbonyloxy)ethyl)pyridine 1-oxide], the 50% inhibitory concentration (IC50) was less than 0.1 nM. Consider `Cn1ccnc1S(=O)(=O)N1CCCC[C@H]1C(=O)O[C@@H](Cc1c(Cl)c[n+]([O-])cc1Cl)c1ccc(OC(F)F)c(OCC2CC2)c1` [Compound 116, 3,5-dichloro-4-((S)-2-(3-(cyclopropylmethoxy)-4-(difluoromethoxy)phenyl)-2-((S)-1-(1-methyl-1H-imidazol-2-ylsulfonyl)piperidine-2-carbonyloxy)ethyl)pyridine 1-oxide], for which the IC50 is less than 0.1 nM. In the case of `COc1ccc(S(=O)(=O)N2CCS[C@H]2C(=O)O[C@@H](Cc2c(Cl)c[n+]([O-])cc2Cl)c2ccc(OC(F)F)c(OCC3CC3)c2)cc1` [Compound 110, 3,5-dichloro-4-((S)-2-(3-(cyclopropylmethoxy)-4-(difluoromethoxy)phenyl)-2-((S)-3-(4-methoxyphenylsulfonyl)thiazolidine-2-carbonyloxy)ethyl)pyridine 1-oxide] it was 0.1 to 1 nM.

Turning to `COc1ccc(S(=O)(=O)N2CCCC[C@H]2C(=O)O[C@@H](Cc2c(Cl)c[n+]([O-])cc2Cl)c2ccc(OC(F)F)c(OCC3CC3)c2)cc1OC` [Compound 98, 3,5-dichloro-4-((S)-2-(3-(cyclopropylmethoxy)-4-(difluoromethoxy)phenyl)-2-((S)-1-(3,4-dimethoxyphenylsulfonyl)piperidine-2-carbonyloxy)ethyl)pyridine 1-oxide], the IC50 lay in the range of 0.1 to 1 nM. As for `CS(=O)(=O)Nc1ccc(S(=O)(=O)N2CCSC2C(=O)O[C@@H](Cc2c(Cl)c[n+]([O-])cc2Cl)c2ccc(OC(F)F)c(OCC3CC3)c2)cc1` (stereo partly drawn) [Compound 142, 3,5-dichloro-4-((2S)-2-(3-(cyclopropylmethoxy)-4-(difluoromethoxy)phenyl)-2-(3-(4-(methylsulfonamido)phenylsulfonyl)thiazolidine-2-carbonyloxy)ethyl)pyridine 1-oxide], the IC50 was 0.1 to 1 nM.

Take `CN(C)C(=O)c1cccc(S(=O)(=O)N2CCSCC2C(=O)O[C@@H](Cc2c(Cl)c[n+]([O-])cc2Cl)c2ccc(OC(F)F)c(OCC3CC3)c2)c1` (stereo partly drawn) [Compound 80, 3,5-dichloro-4-((2S)-2-(3-(cyclopropylmethoxy)-4-(difluoromethoxy)phenyl)-2-(4-(3-(dimethylcarbamoyl)phenylsulfonyl)thiomorpholine-3-carbonyloxy)ethyl)pyridine 1-oxide]: the half-inhibitory concentration (IC50) was 0.1 to 1 nM. In the case of `O=C1NC(=O)c2cc(S(=O)(=O)N3CCSC3C(=O)O[C@@H](Cc3c(Cl)c[n+]([O-])cc3Cl)c3ccc(OC(F)F)c(OCC4CC4)c3)ccc21` (stereo partly drawn) [Compound 58, 3,5-dichloro-4-((2S)-2-(3-(cyclopropylmethoxy)-4-(difluoromethoxy)phenyl)-2-(3-(1,3-dioxoisoindolin-5-ylsulfonyl)thiazolidine-2-carbonyloxy)ethyl)pyridine 1-oxide] it was 0.1 to 1 nM; in that of `CN1C(=O)Cc2cc(S(=O)(=O)N3CCS[C@H]3C(=O)O[C@@H](Cc3c(Cl)c[n+]([O-])cc3Cl)c3ccc(OC(F)F)c(OCC4CC4)c3)ccc21` [Compound 210, 3,5-dichloro-4-((S)-2-(3-(cyclopropylmethoxy)-4-(difluoromethoxy)phenyl)-2-((S)-3-(1-methyl-2-oxoindolin-5-ylsulfonyl)thiazolidine-2-carbonyloxy)ethyl)pyridine 1-oxide], less than 0.1 nM. The figure for `CN(C)C(=O)c1cccc(CS(=O)(=O)N2CCS[C@H]2C(=O)O[C@@H](Cc2c(Cl)c[n+]([O-])cc2Cl)c2ccc(OC(F)F)c(OCC3CC3)c2)c1` [Compound 295, 3,5-dichloro-4-((S)-2-(3-(cyclopropylmethoxy)-4-(difluoro-methoxy)phenyl)-2-((S)-3-(3-(dimethylcarbamoyl)benzylsulfonyl)-thiazolidine-2-carbonyloxy)ethyl)pyridine 1-oxide] is 0.1 to 1 nM. The figure for `N#Cc1cccc(S(=O)(=O)N2CCS[C@H]2C(=O)O[C@@H](Cc2c(Cl)c[n+]([O-])cc2Cl)c2ccc(OC(F)F)c(OCC3CC3)c2)c1` [Compound 207, 3,5-dichloro-4-((S)-2-((S)-3-(3-cyanophenylsulfonyl)thiazolidine-2-carbonyloxy)-2-(3-(cyclopropylmethoxy)-4-(difluoromethoxy)phenyl)ethyl)pyridine 1-oxide] is 0.1 to 1 nM; for `O=C(O[C@@H](Cc1c(Cl)c[n+]([O-])cc1Cl)c1ccc(OC(F)F)c(OCC2CC2)c1)C1SCCN1S(=O)(=O)c1ccccc1Cl` (stereo partly drawn) [Compound 70, 3,5-dichloro-4-((2S)-2-(3-(2-chlorophenylsulfonyl)thiazolidine-2-carbonyloxy)-2-(3-(cyclopropylmethoxy)-4-(difluoromethoxy)phenyl)ethyl)pyridine 1-oxide] it is 0.1 to 1 nM; for `COc1ccc(OC)c(S(=O)(=O)N2CCS[C@H]2C(=O)O[C@@H](Cc2c(Cl)c[n+]([O-])cc2Cl)c2ccc(OC(F)F)c(OCC3CC3)c2)c1` [Compound 115, 3,5-dichloro-4-((S)-2-(3-(cyclopropylmethoxy)-4-(difluoromethoxy)phenyl)-2-((S)-3-(2,5-dimethoxyphenylsulfonyl)thiazolidine-2-carbonyloxy)ethyl)pyridine 1-oxide] it is less than 0.1 nM.

Consider `O=C(O[C@@H](Cc1c(Cl)c[n+]([O-])cc1Cl)c1ccc(OC(F)F)c(OCC2CC2)c1)[C@@H]1SCCN1S(=O)(=O)c1ccc(N2CCOCC2)nc1` [Compound 105, 3,5-dichloro-4-((S)-2-(3-(cyclopropylmethoxy)-4-(difluoromethoxy)phenyl)-2-((S)-3-(6-morpholinopyridin-3-ylsulfonyl)thiazolidine-2-carbonyloxy)ethyl)pyridine 1-oxide], for which the IC50 was 0.1 to 1 nM. In the case of `O=C(O[C@@H](Cc1c(Cl)c[n+]([O-])cc1Cl)c1ccc(OC(F)F)c(OCC2CC2)c1)C1SCCN1S(=O)(=O)c1ccc(F)cc1Cl` (stereo partly drawn) [Compound 68, 3,5-dichloro-4-((2S)-2-(3-(2-chloro-4-fluorophenylsulfonyl)thiazolidine-2-carbonyloxy)-2-(3-(cyclopropylmethoxy)-4-(difluoromethoxy)phenyl)ethyl)pyridine 1-oxide] it was 0.1 to 1 nM.

Take `Nc1cccc(S(=O)(=O)N2CCS[C@H]2C(=O)O[C@@H](Cc2c(Cl)c[n+]([O-])cc2Cl)c2ccc(OC(F)F)c(OCC3CC3)c2)c1` [Compound 140, 4-((S)-2-((S)-3-(3-aminophenylsulfonyl)thiazolidine-2-carbonyloxy)-2-(3-(cyclopropylmethoxy)-4-(difluoromethoxy)phenyl)ethyl)-3,5-dichloropyridine 1-oxide]: the IC50 is less than 0.1 nM.

With `CN1CCOc2ccc(S(=O)(=O)N3CSC[C@H]3C(=O)O[C@@H](Cc3c(Cl)c[n+]([O-])cc3Cl)c3ccc(OC(F)F)c(OCC4CC4)c3)cc21` [Compound 252, 3,5-dichloro-4-((S)-2-(3-(cyclopropylmethoxy)-4-(difluoromethoxy)phenyl)-2-((R)-3-(4-methyl-3,4-dihydro-2H-benzo[b][1,4]oxazin-6-ylsulfonyl)thiazolidine-4-carbonyloxy)ethyl)pyridine 1-oxide], the IC50 was less than 0.1 nM.

As a reminder, the IC50 is the point on the concentration scale where inhibition reaches its midpoint.

(Values after patent publication US9931327B2, “Derivatives of 1-phenyl-2-pyridinyl alkyl alcohols as phosphodiesterase inhibitors” (Chiesi Farmaceutici S.p.A., priority 2011, dated 2018).)
